Reference: PubChem BioAssay (NCI)
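GI50: concentration for 50% inhibition of growth. Definition used: TGI = concentration required for complete inhibition of growth.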

How the values were obtained:
Assay in all cases: NCI-60 cell line screen, 384-well format
HOP-92 NSCLC = system: HOP-92 NSCLC
A549 NSCLC = system: A549 NSCLC
OVCAR-5 ovarian = system: OVCAR-5 ovarian
SR leukemia = system: SR leukemia
DU-145 prostate = system: DU-145 prostate
LOX IMVI melanoma = system: LOX IMVI melanoma
K-562 leukemia = system: K-562 leukemia
T-47D breast = system: T-47D breast
M14 melanoma = system: M14 melanoma
SW-620 colon = system: SW-620 colon
HOP-62 NSCLC = system: HOP-62 NSCLC
RPMI-8226 leukemia = system: RPMI-8226 leukemia
MDA-MB-435 melanoma = system: MDA-MB-435 melanoma
CCRF-CEM leukemia = system: CCRF-CEM leukemia
SF-268 CNS = system: SF-268 CNS
MALME-3M melanoma = system: MALME-3M melanoma
SK-MEL-5 melanoma = system: SK-MEL-5 melanoma
786-0 renal = system: 786-0 renal
KM12 colon = system: KM12 colon
BT-549 breast = system: BT-549 breast
TK-10 renal = system: TK-10 renal
NCI-H522 lung = system: NCI-H522 lung
UO-31 renal = system: UO-31 renal
UACC-62 melanoma = system: UACC-62 melanoma
NCI-H460 NSCLC = system: NCI-H460 NSCLC
MOLT-4 leukemia = system: MOLT-4 leukemia
OVCAR-3 ovarian = system: OVCAR-3 ovarian
MCF7 breast = system: MCF7 breast
MDA-MB-231 breast = system: MDA-MB-231 breast
OVCAR-8 ovarian = system: OVCAR-8 ovarian
HL-60(TB) leukemia = system: HL-60(TB) leukemia
PC-3 prostate = system: PC-3 prostate
SN12C renal = system: SN12C renal
NCI-H322M lung = system: NCI-H322M lung
SK-MEL-28 melanoma = system: SK-MEL-28 melanoma
SNB-19 CNS = system: SNB-19 CNS
HCT-15 colon = system: HCT-15 colon
A498 renal = system: A498 renal
SF-295 CNS = system: SF-295 CNS
HCC-2998 colon = system: HCC-2998 colon
NCI-H226 lung = system: NCI-H226 lung
HT29 colon = system: HT29 colon
HCT-116 colon = system: HCT-116 colon
SK-OV-3 ovarian = system: SK-OV-3 ovarian
MDA-MB-468 breast = system: MDA-MB-468 breast
COLO 205 colon = system: COLO 205 colon
OVCAR-4 ovarian = system: OVCAR-4 ovarian
UACC-257 melanoma = system: UACC-257 melanoma
U251 glioblastoma = system: U251 glioblastoma
CAKI-1 renal = system: CAKI-1 renal
NCI/ADR-RES ovarian = system: NCI/ADR-RES ovarian
ACHN renal = system: ACHN renal
SK-MEL-2 melanoma = system: SK-MEL-2 melanoma
NCI-H23 lung = system: NCI-H23 lung
IGROV1 ovarian = system: IGROV1 ovarian
RXF 393 renal = system: RXF 393 renal
SF-539 CNS = system: SF-539 CNS
EKVX NSCLC = system: EKVX NSCLC
SNB-75 CNS = system: SNB-75 CNS
HS 578T breast = system: HS 578T breast

## COCCNCc1ccc(-c2cc3nccc(Oc4ccc(NC(=O)C5(C(=O)Nc6ccc(F)cc6)CC5)cc4F)c3s2)nc1
HOP-92 NSCLC
  GI50: 166 nM
  TGI: 1050 nM
A549 NSCLC
  GI50: 1280 nM
  TGI: 2560 nM
OVCAR-5 ovarian
  GI50: 1630 nM
  TGI: 3100 nM
SR leukemia
  GI50: 1130 nM
  TGI: 2340 nM
DU-145 prostate
  GI50: 1750 nM
  TGI: 3140 nM
LOX IMVI melanoma
  GI50: 2260 nM
  TGI: 3730 nM
K-562 leukemia
  GI50: 101 nM
  TGI: 219 nM
T-47D breast
  GI50: 1160 nM
  TGI: 2390 nM
M14 melanoma
  GI50: 1370 nM
  TGI: 2670 nM
SW-620 colon
  GI50: 1260 nM
  TGI: 2530 nM
HOP-62 NSCLC
  GI50: 1810 nM
  TGI: 3210 nM
RPMI-8226 leukemia
  GI50: 499 nM
  TGI: 1560 nM
MDA-MB-435 melanoma
  GI50: 1370 nM
  TGI: 2680 nM
CCRF-CEM leukemia
  GI50: 1420 nM
  TGI: 2730 nM
SF-268 CNS
  GI50: 1570 nM
  TGI: 2930 nM
MALME-3M melanoma
  GI50: 1030 nM
  TGI: 2200 nM
SK-MEL-5 melanoma
  GI50: 1130 nM
  TGI: 2350 nM
786-0 renal
  GI50: 1550 nM
  TGI: 2890 nM
KM12 colon
  GI50: 30.9 nM
  TGI: 1080 nM
BT-549 breast
  GI50: 1620 nM
  TGI: 2980 nM
TK-10 renal
  GI50: 1690 nM
  TGI: 3110 nM
NCI-H522 lung
  GI50: 1280 nM
  TGI: 2540 nM
UO-31 renal
  GI50: 1380 nM
  TGI: 2700 nM
UACC-62 melanoma
  GI50: 1240 nM
  TGI: 2510 nM
NCI-H460 NSCLC
  GI50: 1450 nM
  TGI: 2790 nM
MOLT-4 leukemia
  GI50: 477 nM
  TGI: 1630 nM
OVCAR-3 ovarian
  GI50: 1590 nM
  TGI: 2960 nM
MCF7 breast
  GI50: 1150 nM
  TGI: 2370 nM
MDA-MB-231 breast
  GI50: 1320 nM
  TGI: 2600 nM
OVCAR-8 ovarian
  GI50: 1570 nM
  TGI: 2920 nM
HL-60(TB) leukemia
  GI50: 1480 nM
  TGI: 2800 nM
PC-3 prostate
  GI50: 1690 nM
  TGI: 3090 nM
SN12C renal
  GI50: 346 nM
  TGI: 1670 nM
NCI-H322M lung
  GI50: 1400 nM
  TGI: 2720 nM
SK-MEL-28 melanoma
  GI50: 1430 nM
  TGI: 2750 nM
SNB-19 CNS
  GI50: 1900 nM
  TGI: 3330 nM
HCT-15 colon
  GI50: 1280 nM
  TGI: 2550 nM
A498 renal
  GI50: 1410 nM
  TGI: 2720 nM
SF-295 CNS
  GI50: 396 nM
  TGI: 1950 nM
HCC-2998 colon
  GI50: 1480 nM
  TGI: 2810 nM
NCI-H226 lung
  GI50: 1580 nM
  TGI: 2960 nM
HT29 colon
  GI50: 574 nM
  TGI: 1840 nM
HCT-116 colon
  GI50: 1100 nM
  TGI: 2310 nM
SK-OV-3 ovarian
  GI50: 1180 nM
  TGI: 2420 nM
MDA-MB-468 breast
  GI50: 1940 nM
  TGI: 3360 nM
COLO 205 colon
  GI50: 1140 nM
  TGI: 2370 nM
OVCAR-4 ovarian
  GI50: 1360 nM
  TGI: 2660 nM
UACC-257 melanoma
  GI50: 186 nM
  TGI: 396 nM
U251 glioblastoma
  GI50: 1450 nM
  TGI: 2780 nM
CAKI-1 renal
  GI50: 1250 nM
  TGI: 2560 nM
NCI/ADR-RES ovarian
  GI50: 1560 nM
  TGI: 2950 nM
ACHN renal
  GI50: 682 nM
  TGI: 1960 nM
SK-MEL-2 melanoma
  GI50: 1410 nM
  TGI: 2710 nM
NCI-H23 lung
  GI50: 414 nM
  TGI: 1960 nM
IGROV1 ovarian
  GI50: 1360 nM
  TGI: 2670 nM
RXF 393 renal
  GI50: 768 nM
  TGI: 2050 nM
SF-539 CNS
  GI50: 466 nM
  TGI: 1910 nM

## C[C@H]1COCCN1c1nc(-c2cnc(N)cc2C(F)F)nc(N2CCOCC2)n1
HOP-92 NSCLC
  GI50: 102 nM
  TGI: 462 nM
A549 NSCLC
  GI50: 221 nM
  TGI: 2750 nM
OVCAR-5 ovarian
  GI50: 163 nM
  TGI: 1170 nM
SR leukemia
  GI50: 125 nM
  TGI: 370 nM
DU-145 prostate
  GI50: 308 nM
  TGI: > 100000 nM
LOX IMVI melanoma
  GI50: 242 nM
  TGI: 1170 nM
K-562 leukemia
  GI50: 548 nM
  TGI: > 100000 nM
T-47D breast
  GI50: 19.7 nM
  TGI: 106 nM
M14 melanoma
  GI50: 191 nM
  TGI: 27400 nM
SW-620 colon
  GI50: 554 nM
  TGI: > 100000 nM
HOP-62 NSCLC
  GI50: 261 nM
  TGI: 4410 nM
RPMI-8226 leukemia
  GI50: 30.7 nM
  TGI: 155 nM
MDA-MB-435 melanoma
  GI50: 275 nM
  TGI: 2520 nM
CCRF-CEM leukemia
  GI50: 224 nM
  TGI: 1680 nM
EKVX NSCLC
  GI50: 189 nM
  TGI: 780 nM
SF-268 CNS
  GI50: 311 nM
  TGI: 36100 nM
MALME-3M melanoma
  GI50: 50.7 nM
  TGI: 309 nM
SK-MEL-5 melanoma
  GI50: 143 nM
  TGI: 417 nM
SNB-75 CNS
  GI50: 117 nM
  TGI: 810 nM
786-0 renal
  GI50: 385 nM
  TGI: 6130 nM
KM12 colon
  GI50: 294 nM
  TGI: 12000 nM
BT-549 breast
  GI50: 175 nM
  TGI: 758 nM
TK-10 renal
  GI50: 254 nM
  TGI: 2010 nM
NCI-H522 lung
  GI50: 206 nM
  TGI: 1630 nM
UO-31 renal
  GI50: 321 nM
  TGI: > 100000 nM
UACC-62 melanoma
  GI50: 227 nM
  TGI: 1490 nM
NCI-H460 NSCLC
  GI50: 68.7 nM
  TGI: > 100000 nM
MOLT-4 leukemia
  GI50: 103 nM
  TGI: 406 nM
OVCAR-3 ovarian
  GI50: 270 nM
  TGI: 2930 nM
MCF7 breast
  GI50: 45.3 nM
  TGI: 3080 nM
MDA-MB-231 breast
  GI50: 248 nM
  TGI: > 100000 nM
OVCAR-8 ovarian
  GI50: 307 nM
  TGI: > 100000 nM
HL-60(TB) leukemia
  GI50: 289 nM
  TGI: 2820 nM
PC-3 prostate
  GI50: 166 nM
  TGI: 10100 nM
SN12C renal
  GI50: 138 nM
  TGI: 772 nM
NCI-H322M lung
  GI50: 203 nM
  TGI: 10900 nM
SK-MEL-28 melanoma
  GI50: 146 nM
  TGI: 890 nM
SNB-19 CNS
  GI50: 2330 nM
  TGI: > 100000 nM
HCT-15 colon
  GI50: 181 nM
  TGI: 30900 nM
A498 renal
  GI50: 49.3 nM
  TGI: 447 nM
SF-295 CNS
  GI50: 106 nM
  TGI: 463 nM
HCC-2998 colon
  GI50: 423 nM
  TGI: 12400 nM
NCI-H226 lung
  GI50: 159 nM
  TGI: 649 nM
HT29 colon
  GI50: 263 nM
  TGI: 55300 nM
SK-OV-3 ovarian
  GI50: 129 nM
  TGI: 441 nM
MDA-MB-468 breast
  GI50: 172 nM
  TGI: 487 nM
COLO 205 colon
  GI50: 201 nM
  TGI: 11800 nM
OVCAR-4 ovarian
  GI50: 115 nM
  TGI: 585 nM
UACC-257 melanoma
  GI50: 389 nM
  TGI: 3210 nM
CAKI-1 renal
  GI50: 196 nM
  TGI: 3960 nM
NCI/ADR-RES ovarian
  GI50: 399 nM
  TGI: > 100000 nM
ACHN renal
  GI50: 247 nM
  TGI: 3830 nM
NCI-H23 lung
  GI50: 184 nM
  TGI: 30700 nM
IGROV1 ovarian
  GI50: 53.8 nM
  TGI: 265 nM
RXF 393 renal
  GI50: 315 nM
  TGI: 2880 nM
HS 578T breast
  GI50: 52.8 nM
  TGI: 273 nM
SF-539 CNS
  GI50: 323 nM
  TGI: 5880 nM
